# Measurements published in patent publication US10201533B2, “Substituted quinolizine derivatives useful as HIV integrase inhibitors” (priority 2013, dated 2019).
# Where two headings read alike, the source gives them in different places.
# System: HIV-1 (NL4-3 strain)
# Assay: microbe, parasite or virus in culture
# Assay type: cell-based
# Conditions: MT4-GFP cells infected with HIV-1 NL4-3, IP or IC50 from 4-parameter dose response curve
# [1] = Human immunodeficiency virus 1, NL43, 0% normal human serum (NHS), read-out: WILD TYPE CELL ASSAY Viking IP (0% NHS)
# [2] = 100% normal human serum (NHS), read-out: WILD TYPE CELL ASSAY Viking IP (100% NHS)
Compound,IC50 [1],"IC50 (Human immunodeficiency virus 1, NL43, 100% normal human serum (NHS), read-out: WILD TYPE CELL ASSAY Viking IP (100% NHS))",IC50 [2],"IC50 (0% normal human serum (NHS), read-out: WILD TYPE CELL ASSAY Viking IP (0% NHS))"
"C[C@@]12CCCO[C@@H]1Cn1cc(C(=O)NCc3ccc(F)c(Cl)c3)c(=O)c(O)c1C2=O (single isomer, unassigned) [Compound 16]",0.0041 µM,0.257 µM,–,–
"C[C@@]12CCCCO[C@@H]1Cn1cc(C(=O)NCc3ccc(F)cc3F)c(=O)c(O)c1C2=O (single isomer, unassigned) [Compound 39]",0.0008 µM,–,0.033 µM,–
COCCC[C@]1(C)C(=O)c2c(O)c(=O)c(C(=O)NCc3cccc(Cl)c3F)cn2C[C@@H]1OC [Compound 79],–,–,0.662 µM,0.001 µM
